Experimental findings from the NIST ThermoML archive (doi:10.1021/je0604277) are described below.

± gives the expanded uncertainty stated by the source.

For series [1] the following is noted: 298.15 K; 101 kPa; Liquid mixture 1; rotated drop method.
The conditions of series [2]: for viscosity: 101.33 kPa, Liquid, rotational viscometer; for surface tension liquid-gas: Pendant drop shape.

Turning to `CCCCn1cc[n+](C)c1.F[P-](F)(F)(F)(F)F` [1-butyl-3-methylimidazolium hexafluorophosphate] + CCCCCC, the interfacial tension in series [1] was 13.39 ± 0.27 mN/m.
The viscosity is the resistance of a fluid to flow. The surface tension liquid-gas is the work needed to enlarge the surface of a liquid by unit area. Consider `CC(C)=Cn1cc[n+](C)c1.F[B-](F)(F)F` [1-isobutenyl-3-methylimidazolium tetrafluoroborate], for which the viscosity in series [2] (288.15 K) is reported as 214.2 ± 8.2 mPa·s; in series [2] (293.15 K), 158.7 ± 6.5 mPa·s; in series [2] (296.15 K), 133.4 ± 5.4 mPa·s; in series [2] (298.15 K), 118.5 ± 4.6 mPa·s; in series [2] (301.15 K), 100.4 ± 4 mPa·s; in series [2] (303.15 K), 88.9 ± 3.5 mPa·s. The viscosity is on record as 79.8 ± 3.1 mPa·s in series [2] (305.15 K), 68 ± 2.6 mPa·s in series [2] (308.15 K), 58.6 ± 2.2 mPa·s in series [2] (311.15 K) and 53.4 ± 2 mPa·s in series [2] (313.15 K). Further, in series [2] (298.15 K), the surface tension liquid-gas came to 51.8 ± 2.2 mN/m.
Take `CCCCn1cc[n+](C)c1.F[P-](F)(F)(F)(F)F` [1-butyl-3-methylimidazolium hexafluorophosphate] + CCOC(C)=O: the interfacial tension in series [1] was 11.69 ± 0.23 mN/m.
With `CCCCn1cc[n+](C)c1.F[P-](F)(F)(F)(F)F` [1-butyl-3-methylimidazolium hexafluorophosphate] + O, the interfacial tension in series [1] came out at 10.06 ± 0.2 mN/m.
The same measure, in the same setting: for `CCCCn1cc[n+](C)c1.F[P-](F)(F)(F)(F)F` [1-butyl-3-methylimidazolium hexafluorophosphate] + CCCCCCO the value was 5.556 ± 0.11 mN/m; for `CCCCn1cc[n+](C)c1.F[P-](F)(F)(F)(F)F` [1-butyl-3-methylimidazolium hexafluorophosphate] + CCCCOC(C)=O, 0.4344 ± 0.0087 mN/m.
As for `CCCCn1cc[n+](C)c1.F[P-](F)(F)(F)(F)F` [1-butyl-3-methylimidazolium hexafluorophosphate] + CCCCO, the interfacial tension in series [1] is given as 4.706 ± 0.094 mN/m.
With `CCCCn1cc[n+](C)c1.F[P-](F)(F)(F)(F)F` [1-butyl-3-methylimidazolium hexafluorophosphate] + CCC(=O)O, in series [1], the interfacial tension is 3.292 ± 0.066 mN/m.
Take `CCCCn1cc[n+](C)c1.F[P-](F)(F)(F)(F)F` [1-butyl-3-methylimidazolium hexafluorophosphate] + CCO: the interfacial tension in series [1] worked out at 1.222 ± 0.024 mN/m.
Same read-out and setting: the same measure for `CCCCn1cc[n+](C)c1.F[P-](F)(F)(F)(F)F` [1-butyl-3-methylimidazolium hexafluorophosphate] + C1CCCCC1: 13.15 ± 0.26 mN/m.
On to `CCCCn1cc[n+](C)c1.F[P-](F)(F)(F)(F)F` [1-butyl-3-methylimidazolium hexafluorophosphate] + Cc1ccccc1, for which the interfacial tension in series [1] is 3 ± 0.06 mN/m.
On to `CCCCn1cc[n+](C)c1.F[P-](F)(F)(F)(F)F` [1-butyl-3-methylimidazolium hexafluorophosphate] + CCCCCCCCO, for which the interfacial tension in series [1] is 7.385 ± 0.15 mN/m.
Regarding `CCCCn1cc[n+](C)c1.F[P-](F)(F)(F)(F)F` [1-butyl-3-methylimidazolium hexafluorophosphate] + CCCCCCCO, in series [1], the interfacial tension was 6.41 ± 0.13 mN/m.
For `CCCCn1cc[n+](C)c1.F[P-](F)(F)(F)(F)F` [1-butyl-3-methylimidazolium hexafluorophosphate] + CCCCCCCC, the interfacial tension in series [1] was found to be 14.29 ± 0.28 mN/m.
`CCCCn1cc[n+](C)c1.F[P-](F)(F)(F)(F)F` [1-butyl-3-methylimidazolium hexafluorophosphate] + C=CCCCC: in series [1], the interfacial tension was 10.42 ± 0.21 mN/m.
Take `C=Cc1ccccc1` [styrene] + CCCCn1cc[n+](C)c1.F[P-](F)(F)(F)(F)F: the interfacial tension in series [1] came out at 1.793 ± 0.036 mN/m.
Regarding `CCCCn1cc[n+](C)c1.F[P-](F)(F)(F)(F)F` [1-butyl-3-methylimidazolium hexafluorophosphate], the viscosity in series [2] (288.15 K) came out at 400.2 ± 16 mPa·s; in series [2] (293.15 K), 294 ± 12 mPa·s; in series [2] (296.15 K), 245.8 ± 10 mPa·s; in series [2] (298.15 K), 217.9 ± 8.6 mPa·s; in series [2] (301.15 K), 182.7 ± 7.4 mPa·s; in series [2] (303.15 K) it was 162.9 ± 6.5 mPa·s. Further, the viscosity in series [2] (305.15 K) is listed as 145.1 ± 5.6 mPa·s; in series [2] (308.15 K) it was 123.2 ± 4.8 mPa·s; in series [2] (311.15 K), 104 ± 4.1 mPa·s; in series [2] (313.15 K), 95 ± 3.6 mPa·s. In addition, in series [2] (298.15 K), the surface tension liquid-gas is recorded as 53.1 ± 2.5 mN/m.
`CCCCn1cc[n+](C)c1.F[P-](F)(F)(F)(F)F` [1-butyl-3-methylimidazolium hexafluorophosphate] + c1ccccc1: the interfacial tension in series [1] came to 2.209 ± 0.044 mN/m.
For the compound `CCCCn1cc[n+](C)c1.F[P-](F)(F)(F)(F)F` [1-butyl-3-methylimidazolium hexafluorophosphate] + CCc1ccccc1, the interfacial tension in series [1] turned out to be 3.995 ± 0.08 mN/m.
Regarding `CCCCn1cc[n+](C)c1.F[P-](F)(F)(F)(F)F` [1-butyl-3-methylimidazolium hexafluorophosphate] + CCCCC, in series [1], the interfacial tension is reported as 13.65 ± 0.27 mN/m.
On the same count and under the same terms, the same measure for `CCCCn1cc[n+](C)c1.F[P-](F)(F)(F)(F)F` [1-butyl-3-methylimidazolium hexafluorophosphate] + CCCCCO: 5.325 ± 0.11 mN/m; for `CCCCn1cc[n+](C)c1.F[P-](F)(F)(F)(F)F` [1-butyl-3-methylimidazolium hexafluorophosphate] + CCCCCCCCCCO: 7.516 ± 0.15 mN/m; for `CCCCCCCCCCCCO` [dodecan-1-ol] + CCCCn1cc[n+](C)c1.F[P-](F)(F)(F)(F)F: 8.788 ± 0.17 mN/m.
